Assay results from US8586505B2 (SDS Biotech K. K., priority 2009, dated 2013).

Key:
Phytophthora infestans = assay: whole plant or invertebrate; format: in vivo; conditions: in Solanum lycopersicum, 96 h, read-out: Determination of control effect (preventive value)
[1] = test system: Pseudoperonospora cubensis; assay: Test of examining control effect on Pseudoperonospora cubensis (potted cucumber plants); format: in vivo; conditions: 96 h, 10% wettable powder adjusted to 125 ppm, 15 ml/pot sprayed on potted cucumber plants one day before spray inoculation, assessed after 1 day wet chamber and 3 days greenhouse, read-out: Determination of control effect (preventive value) on Pseudoperonospora cubensis
Method in brief: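 Preventive treatment: 125 ppm sample agent solution (from 10% wettable powder) sprayed at 15 ml/pot on 2.5-leaf Sagamihanjiro cucumbers, then P. cubensis inoculated next day at 1.0×10^4 cells/ml. Incubation was 1 day wet at 21° C plus 3 days greenhouse. Lesion area rate compared with untreated gives preventive value (≥60% high).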

Sphaerotheca fuliginea = assay: Test of examining control effect on Sphaerotheca fuliginea (potted cucumber plants); format: in vivo; conditions: Podosphaera fuliginea, 336 h; 10% wettable powder adjusted to 125 ppm, 15 ml/pot sprayed on potted cucumber plants one day before spray inoculation; assessed after 14 days in greenhouse; read-out: Determination of control effect (preventive value) on Sphaerotheca fuliginea
Method in brief: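 Control effect rated high at preventive value 60–100% and low below 60%, from lesion area relative to untreated plants 14 days after spray inoculation with S. fuliginea (1.0×10^5 cells/ml). Compound applied at 125 ppm as wettable-powder spray one day before inoculation, on 2nd-leaf-stage Sagamihanjiro cucumber.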

Structure (SMILES)	pest or weed control at 125 ppm (Phytophthora infestans) [%]	pest or weed control at 125 µg/mL [1] [%]	pest or weed control at 125 µg/mL (Sphaerotheca fuliginea) [%]	melting point [°C]
C(#Cc1csc(-c2ccccc2)n1)CCNc1ncnc2sccc12 [compound 76, 4-[4-(2-Phenylthiazol-4-yl)-3-butynylamino]thieno[2,3-d]pyrimidine]	0 to 60	60 to 100	60 to 100	134 to 136
Clc1cc(NCCC#Cc2ccccc2)ncn1 [compound 358]	0 to 60	0 to 60	60 to 100	118 to 120
C(#Cc1cscn1)CCNc1ncnc2sccc12 [compound 63]	60 to 100	60 to 100	60 to 100	174
N#Cc1ccc(Oc2nc(C#CCCNc3ncnc4ccccc34)cs2)cc1 [compound 223]	60 to 100	60 to 100	60 to 100	55 to 57
Cc1scnc1C#CCCNc1ncnc2sccc12 [compound 65]	60 to 100	60 to 100	60 to 100	148 to 150
OCc1nc(C#CCCNc2ncnc3sccc23)cs1 [compound 70]	60 to 100	60 to 100	60 to 100	193
FC(F)(F)c1ccccc1C#CCCNc1ncnc2cc(Cl)ccc12 [compound 308]	0 to 60	60 to 100	60 to 100	153 to 154
Clc1cccc(Cl)c1C#CCCNc1ncnc2ccccc12 [compound 174]	60 to 100	60 to 100	60 to 100	153 to 155
C(#Cc1ccccc1)CCNc1ncnc2[nH]cnc12 [compound 378]	0 to 60	0 to 60	0 to 60	207 to 208
Clc1ncccc1C#CCCNc1ncnc2ccccc12 [compound 195]	60 to 100	60 to 100	60 to 100	168 to 170
Clc1ncnc(NCCC#Cc2ccccc2)c1Cl [compound 357]	60 to 100	60 to 100	0 to 60	122 to 123
COc1ccc(Cl)cc1C#CCCNc1ncnc2ccccc12 [compound 179]	60 to 100	60 to 100	60 to 100	147 to 149
Fc1ccc(C#CCCNc2ncnc3sccc23)c(F)c1 [compound 41]	60 to 100	60 to 100	–	177 to 178
Fc1cccc(F)c1C#CCCNc1ncnc2sccc12 [compound 42]	60 to 100	60 to 100	–	179 to 181
FC(F)(F)c1ccc(Cl)c(C#CCCNc2ncnc3ccccc23)c1 [compound 176]	0 to 60	60 to 100	60 to 100	144 to 145
C(#Cc1cccnc1)CCNc1ncnc2sccc12 [compound 56]	0 to 60	60 to 100	–	138 to 140
C(#Cc1csc(-c2ccco2)n1)CCNc1ncnc2sccc12 [compound 77]	0 to 60	–	0 to 60	53 to 55
O=[N+]([O-])c1cccc(C#CCCNc2ncnc3sccc23)c1 [compound 39]	60 to 100	60 to 100	–	171 to 172
Fc1cc(C#CCCNc2ncnc3sccc23)cc(F)c1F [compound 43]	60 to 100	60 to 100	–	158 to 159
O=[N+]([O-])c1ccc(C#CCCNc2ncnc3sccc23)cc1 [compound 40]	60 to 100	60 to 100	–	184 to 185
CCCC(CC#Cc1ccccc1)Nc1ncnc2sccc12 (stereo not shown) [compound 268]	0 to 60	60 to 100	60 to 100	–
CN(C)c1ccc(C#CCCNc2ncnc3ccccc23)cc1 [compound 159]	0 to 60	60 to 100	60 to 100	–
FC(F)(F)c1ccc(C#CCCNc2ncnc3ccccc23)c(Cl)c1 [compound 182]	0 to 60	60 to 100	60 to 100	–
FC(F)(F)c1ccc(C#CCCNc2ncnc3sccc23)cc1 [compound 27]	0 to 60	60 to 100	60 to 100	–

Structure (SMILES)	pest or weed control at 125 ppm (Phytophthora infestans) [%]	pest or weed control at 125 µg/mL [1] [%]	pest or weed control at 125 µg/mL (Sphaerotheca fuliginea) [%]	melting point [°C]
CC(CC#Cc1ccc(F)cc1)Nc1ncnc2ccccc12 (stereo not shown) [compound 271]	60 to 100	60 to 100	60 to 100	–
Cc1nc(C#CCCNc2ncnc3ccccc23)cs1 [compound 211]	60 to 100	60 to 100	60 to 100	–
COCc1ccccc1C#CCCNc1ncnc2c(F)cccc12 [compound 315]	60 to 100	60 to 100	60 to 100	–
COCOCc1ccccc1C#CCCNc1ncnc2ccccc12 [compound 148]	60 to 100	60 to 100	60 to 100	–
CSc1ncnc(NCCC#Cc2ccccc2C(F)(F)F)c1[N+](=O)[O-] [compound 371]	0 to 60	0 to 60	0 to 60	–
COc1ccccc1C#CCC(C)Nc1ncnc2ccccc12 (stereo not shown) [compound 276]	60 to 100	60 to 100	0 to 60	–
Cc1nc(C#CCC(C)Nc2ncnc3sccc23)cs1 (stereo not shown) [compound 266]	60 to 100	60 to 100	60 to 100	–
COCc1ccccc1C#CCCNc1ncnc2cccc(F)c12 [compound 318]	60 to 100	60 to 100	60 to 100	–
CC(CC#Cc1cccc(C(F)(F)F)c1)Nc1ncnc2sccc12 (stereo not shown) [compound 234]	0 to 60	60 to 100	60 to 100	–
CC(CC#Cc1ccc(C#N)cc1C(F)(F)F)Nc1ncnc2sccc12 (stereo not shown) [compound 260]	60 to 100	60 to 100	60 to 100	–
C[Si](C)(C)C#CCCNc1ncnc2sccc12 [Compound No. 2, 4-(4-Trimethylsilanyl-3-butynylamino)thieno[2,3-d]pyrimidine]	60 to 100	60 to 100	60 to 100	–
CC(CC#Cc1ccccc1)Nc1ncnc(C(C)F)c1I (stereo not shown) [compound 381]	60 to 100	60 to 100	60 to 100	–
C#CCCNc1ncnc2sccc12 [compound 1, 4-(3-butynylamino)thieno[2,3-d]pyrimidine]	0 to 60	0 to 60	0 to 60	–
CC(C)OCc1ccccc1C#CCCNc1ncnc2ccccc12 [compound 154]	60 to 100	60 to 100	60 to 100	–
Fc1ccc(C#CCCNc2ncnc3sccc23)cc1 [compound 13]	0 to 60	60 to 100	60 to 100	–
COCc1ccccc1C#CCCNc1ncnc2cccc(Cl)c12 [compound 314]	0 to 60	60 to 100	60 to 100	–
Fc1ccccc1Oc1nc(C#CCCNc2ncnc3ccccc23)cs1 [compound 224]	60 to 100	60 to 100	60 to 100	–
COCc1ccccc1C#CCCNc1ncnc2ccc(OCc3ccccc3)cc12 [compound 340]	0 to 60	60 to 100	0 to 60	–
Cc1ccc(C#CCCNc2ncnc3ccccc23)c(C)c1 [compound 180]	60 to 100	60 to 100	60 to 100	–
COCc1ccccc1C#CCCNc1ncnc2ccc(SC)cc12 [compound 332]	0 to 60	60 to 100	0 to 60	–
Clc1ccccc1C#CCCNc1ncnc2sccc12 [compound 14]	0 to 60	60 to 100	60 to 100	–
Fc1ccc(F)c(C#CCCNc2ncnc3ccccc23)c1 [compound 163]	60 to 100	60 to 100	60 to 100	–
COc1cc(C#CCCNc2ncnc3ccccc23)ccn1 [compound 199]	60 to 100	60 to 100	60 to 100	–
